Test results taken from patent US20240309049A1, “SYNTHETIC DNA BINDING DOMAIN PEPTIDES AND USES THEREOF” (The University of Chicago, priority 2016, published 2024).
Positions of bridges follow the written chain, without caps; N, C: chain ends. Non-standard residues stand in square brackets, D forms with d. No end group written: not given here. S5 = C=CCCC[C@](C)(N)C(=O)O; βAla = NCCC(=O)O

Tested on: E-box DNA (5′-CACGTG-3′)
Experiment: Electrophoretic mobility shift assay (EMSA, gel shift) with fluorophore-labeled E-box oligonucleotide
Format: binding
Conditions: for E-box DNA binding in gel shift (in words): E-box probe
Protocol: FIG. 9 Representative electrophoretic mobility shift assay (EMSA, referred to as “Gel Shift) images of full length Myc/Max protein binding a fluorophore-labeled oligonucleotide containing an E-box binding site. Full-length Myc/Max binds in this assay with an affinity of ˜10 nM.
A fluorophore-labeled (5′-FAM) oligonucleotide containing a central E-box sequence was used (at 10 nM) to assess Myc/Max and DMD binding. This sequence was used in the Myc/Max/E-box crystal structure. […] The lower band is free E-box probe whereas the higher band is Myc/Max-bound E-box probe. Addition of excess non-labeled E-box probe (E1) competes this interaction. […] Thus, gel shift assays with the E-box probe are suitable for determining DMD (RTD) DNA-binding.
Representative gel shifts are shown for the Myc/Max heterodimer and members of the RTD2x, RTD8x and RTD7x series. Plotted are binding curves derived from the intensity of the free E-box probe (inhibition) and stable shifted band (binding).

Row | Substance | E-box DNA binding in gel shift (in words) | EC50 (E-box probe at 10 nM, read-out: EC50 for stable E-box binding / stable complex formation) [nM] | E-box DNA binding in gel shift (in words) (listed as MBS) | Kd (E-box oligonucleotide, read-out: binding affinity (Kd) for E-box DNA) [nM]
1 | 913-MBS: RTD913 design with rigid meta-xylyl linker MBS (Ac-W[βAla]KRAHHNALER[2‑amino‑2‑methylhept‑6‑enoic acid]RRD[S5]IKDSK; staple 13-17; also: dimer via MBS (meta-xylyl) linker, attachment site not given here) | both tight and stable binding | 50 to 100 | more stable DNA complex formation | 
2 | AMAS: RTD913 sub-class dimer with short straight-chain AMAS linker (Ac-W[βAla]KRAHHNALER[2‑amino‑2‑methylhept‑6‑enoic acid]RRD[S5]IKDSK; staple 13-17; not fully specified (residue 22); also: dimer via AMAS linker, attachment site not given here) | less stable complex formation |  |  | 
3 | EMCS: RTD913 sub-class dimer with long straight-chain EMCS linker (Ac-W[βAla]KRAHHNALER[2‑amino‑2‑methylhept‑6‑enoic acid]RRD[S5]IKDSK; staple 13-17; not fully specified (residue 22); also: dimer via EMCS linker, attachment site not given here) | less stable complex formation |  |  | 
4 | Myc/Max: full length recombinant Myc/Max protein heterodimer | specifically binds |  |  | ~10
